From article PMC10313624 (EJNMMI Radiopharmacy and Chemistry, 2023)
Where two headings read alike, the source gives them in different places. Marks after values point to notes of the source that are not given here. Bridge positions count the residues as written; N and C are the ends. Square brackets hold non-standard residues; d marks the D form. Peptide text beside a SMILES is read from it. * marks the point of attachment. DOTA = O=C(O)CN1CCN(CC(=O)O)CCN(CC(=O)*)CCN(CC(=O)O)CC1; dPhe(4-NHCONH2) = NC(=O)Nc1ccc(C[C@@H](N)C(=O)O)cc1; Dihydroorotyl(S) = O=C1C[C@@H](C(=O)*)NC(=O)N1; Phe(4-Cl) = N[C@@H](Cc1ccc(Cl)cc1)C(=O)O; Phe(4-NH2) = Nc1ccc(C[C@H](N)C(=O)O)cc1

Key:
SSTR2 = test system: SSTR2; parameters: method as in Hou et al. [2022]; Zhu et al. [2020]; Fani et al. [2017]; settings: compared to DOTA-TATE; ref Hou et al. [2022]; Zhu et al. [2020]; Fani et al. [2017]; cited from earlier work
in vitro = in vitro ADME; settings: mouse, serum
Method: (§1) Haarlerbergweg, The Netherlands) (250 and 100 µL, respectively) at 37 °C. […] In mouse serum, the proteins were precipitated by adding an aliquot of the radiotracer to an equal volume of acetonitrile. The vial was vortexed vigorously and centrifuged for 20 min at 10,000 rpm. Stability studies were monitored by radio-HPLC (Additional file 1: Figs. S5 and S6).

[1] = type: physicochemical; settings: 37 °C, radio-HPLC, n = 1
Method: as §1

[2] = in vivo; cited from earlier work

## C[C@@H](O)[C@@H]1NC(=O)[C@H](CCCCN)NC(=O)[C@@H](Cc2ccc(NC(N)=O)cc2)NC(=O)[C@H](Cc2ccc(NC(=O)[C@@H]3CC(=O)NC(=O)N3)cc2)NC(=O)[C@H](NC(=O)[C@H](Cc2ccc(Cl)cc2)NC(=O)CN2CCN(CC(=O)O)CCN(CC(=O)O)CCN(CC(=O)O)CC2)CSSC[C@@H](C(=O)N[C@H](Cc2ccc(O)cc2)C(N)=O)NC1=O [DOTA-JR11] ({DOTA}-[Phe(4-Cl)][dC][Phe(4-NH2)](Dihydroorotyl(S))[dPhe(4-NHCONH2)]KTC[dY]-NH2; disulfide 2-7; C-terminus assumed)
SSTR2
  binding affinity to SSTR2: lower binding affinity

## C[C@@H](O)[C@@H]1NC(=O)[C@H](CCCCN)NC(=O)[C@@H](Cc2ccc(NC(N)=O)cc2)NC(=O)[C@H](Cc2ccc(NC(=O)[C@@H]3CC(=O)NC(=O)N3)cc2)NC(=O)[C@H](NC(=O)[C@H](Cc2ccc(Cl)cc2)NC(=O)CN2CCN(CC(=O)O)CCN(CC(=O)O)CCN(CC(=O)O)CC2)CSSC[C@@H](C(=O)N[C@H](Cc2ccc(O)cc2)C(N)=O)NC1=O [[^177Lu]Lu-DOTA-JR11, metal not drawn] ({DOTA}-[Phe(4-Cl)][dC][Phe(4-NH2)](Dihydroorotyl(S))[dPhe(4-NHCONH2)]KTC[dY]-NH2; disulfide 2-7 (inferred); C-terminus assumed)
In vitro
  remaining at 2 h, 12 MBq/mL: 94.5%
  remaining at 24 h, 12 MBq/mL: 93.7%

## C[C@@H](O)[C@@H]1NC(=O)[C@H](CCCCN)NC(=O)[C@@H](Cc2ccc(NC(N)=O)cc2)NC(=O)[C@H](Cc2ccc(NC(=O)[C@@H]3CC(=O)NC(=O)N3)cc2)NC(=O)[C@H](NC(=O)[C@H](Cc2ccc(Cl)cc2)NC(=O)CN2CCN(CC(=O)O)CCN(CC(=O)O)CCN(CC(=O)O)CC2)CSSC[C@@H](C(=O)N[C@H](Cc2ccc(O)cc2)C(N)=O)NC1=O [[^177Lu]Lu-DOTA-JR11] [metal not drawn] ({DOTA}-[Phe(4-Cl)][dC][Phe(4-NH2)](Dihydroorotyl(S))[dPhe(4-NHCONH2)]KTC[dY]-NH2; disulfide 2-7 (inferred); C-terminus assumed)
[1]; 2 h, 1.2 MBq in 200 µL PBS
  PBS (%) intact radiolabeled peptide: 96.5%
[1]; 24 h, 1.2 MBq in 200 µL PBS
  PBS (%) intact radiolabeled peptide: 96.8%
[2]
  hematologic toxicity: severe grade 4 hematologic toxicity

## C[C@@H](O)[C@@H]1NC(=O)[C@H](CCCCN)NC(=O)[C@@H](Cc2ccc(NC(N)=O)cc2)NC(=O)[C@H](Cc2ccc(NC(=O)[C@@H]3CC(=O)NC(=O)N3)cc2)NC(=O)[C@H](NC(=O)[C@H](Cc2ccc(Cl)cc2)NC(=O)CN2CCN(CC(=O)O)CCN(CC(=O)O)CCN(CC(=O)O)CC2)CSSC[C@@H](C(=O)N[C@H](Cc2ccc(O)cc2)C(N)=O)NC1=O [[^225Ac]Ac-DOTA-JR11, metal not drawn] ({DOTA}-[Phe(4-Cl)][dC][Phe(4-NH2)](Dihydroorotyl(S))[dPhe(4-NHCONH2)]KTC[dY]-NH2; disulfide 2-7 (inferred); C-terminus assumed)
In vitro
  remaining at 22 h, 200 kBq/mL: 80.9%
  remaining at 24 h, 200 kBq/mL: 81.4%
  remaining at 27 h, 200 kBq/mL: 81%

## C[C@@H](O)[C@@H]1NC(=O)[C@H](CCCCN)NC(=O)[C@@H](Cc2ccc(NC(N)=O)cc2)NC(=O)[C@H](Cc2ccc(NC(=O)[C@@H]3CC(=O)NC(=O)N3)cc2)NC(=O)[C@H](NC(=O)[C@H](Cc2ccc(Cl)cc2)NC(=O)CN2CCN(CC(=O)O)CCN(CC(=O)O)CCN(CC(=O)O)CC2)CSSC[C@@H](C(=O)N[C@H](Cc2ccc(O)cc2)C(N)=O)NC1=O [[^225Ac]Ac-DOTA-JR11] [metal not drawn] ({DOTA}-[Phe(4-Cl)][dC][Phe(4-NH2)](Dihydroorotyl(S))[dPhe(4-NHCONH2)]KTC[dY]-NH2; disulfide 2-7 (inferred); C-terminus assumed)
[1]; radiolabeling condition 1, 22 h, 50 kBq in 500 µL PBS
  PBS (%) intact radiolabeled peptide: 76.9^a %
[1]; radiolabeling condition 2 (without L-melatonin), 24 h, 50 kBq in 500 µL PBS
  PBS (%) intact radiolabeled peptide: 56.6^b %
[1]; radiolabeling condition 3 (with L-melatonin), 27 h, 50 kBq in 500 µL PBS
  PBS (%) intact radiolabeled peptide: 81.0^c %
